In patent publication US6541517B1, “Treatment of skin disorders” (priority 1999, dated 2003):

Key:
[1] = water, alcohol, ether and chloroform; cited from earlier work
[2] = Federal Register, vol. 47, 12553 (Mar. 23, 1982); cited from earlier work
[3] = system: patients who presented with psoriatic lesions; test: Topical treatment of psoriasis in outpatients; assay type: in vivo, human; settings: applied as a topical, episodic treatment for psoriasis
Description: Eight patients who presented with psoriatic lesions were treated with the ointment of Example 1 on an outpatient basis. The ointment of Example 1 was applied to the psoriatic lesions up to four times per day.

| SMILES | miscibility [1] | safety for topical use [2] | effect on psoriatic lesions [3] |
| --- | --- | --- | --- |
| CC(=O)OCC(COC(C)=O)OC(C)=O [Triacetin, 1,2,3-propanetriol triacetate] | miscible in water, alcohol, ether and chloroform | safe for topical use | improve psoriatic lesions |
| CC(=O)OCC(CO)OC(C)=O (centres unmarked) [diacetin, glycerol diacetate] | miscible in water, alcohol, ether and chloroform |  |  |
| CC(=O)OCC(O)CO (centres unmarked) [monacetin, glycerol monoacetate] | miscible in water, alcohol, ether and chloroform |  |  |
